In patent publication US8497240B2 (priority 2006, dated 2013):
Values joined by “and” are separate entries in the source; they are usually repeats but may differ in a detail not shown here. Equal values may be shown once. Read-outs that look alike come from different tables or passages of the source.

Key:
human GIP receptor = target: T1, human GIP receptor (Homo sapiens, UniProt P48546); test: biochemical; assay type: binding
T1 construct: expressed in transfected cells; host or cells: HEK293 (HEK-GIPR), membranes
T1 sequence (P48546 22-466): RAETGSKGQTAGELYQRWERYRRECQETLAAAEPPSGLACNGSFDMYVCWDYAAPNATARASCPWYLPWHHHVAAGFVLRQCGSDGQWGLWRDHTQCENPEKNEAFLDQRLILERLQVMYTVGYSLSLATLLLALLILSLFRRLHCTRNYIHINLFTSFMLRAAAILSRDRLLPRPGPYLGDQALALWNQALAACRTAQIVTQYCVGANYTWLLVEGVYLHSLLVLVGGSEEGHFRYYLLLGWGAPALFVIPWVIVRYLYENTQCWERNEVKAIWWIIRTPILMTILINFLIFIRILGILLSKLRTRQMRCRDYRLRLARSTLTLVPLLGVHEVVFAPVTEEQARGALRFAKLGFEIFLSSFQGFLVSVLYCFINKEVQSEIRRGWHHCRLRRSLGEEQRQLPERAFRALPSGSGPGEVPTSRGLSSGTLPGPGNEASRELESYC

[1] = assay type: in vivo, NIH/Swiss mice; conditions: for Basal Gluc. Low. 80 nmol/Kg / Basal Glucose Lowering at Peptide Conc. of 80 nmol/kg: AUC240; for basal glucose lowering (% maximal decrease): mouse, in vivo
Experimental: (§1) In FIG. 3A, bars represent mean±sd, n=6-10. […] Gavage (1.5 g/kg) was given at t=0, Sample was taken at t=30 min. […] In FIG. 3B, points represent mean±sem, n=8-15.
Points represent mean±sem.

[2] = assay type: in vivo, NIH/Swiss mice
Experimental: as §1
Peptide was injected IP at t=−5 minutes into 4-hour fasted NIH/Swiss female mice. […] In FIG. 17 points represent mean+/−sem. […] Samples were taken at t=60, t=120 and t=180.

[3] = IVGTT duration of action assay (single SC injection before glucose); assay type: in vivo, rat; conditions: for Duration In The Rat IVGTT Assay: compared with 0601GIP3794 (794), dosed at −120 min
Experimental: To determine a duration of action using the IVGTT assay, the sample was injected SC as a single injection at one time point indicated (e.g., t=−240, −120, −60 or −30) prior to administration of glucose. IV glucose was given at t=0.

[4] = Intravenous glucose tolerance test (IVGTT), i.v. infusion; assay type: in vivo, rat; conditions: for IVGTT > = < Compared to 0601GIP3794 / Standard IVGTT assay IV infusion (insulin AUC 0-30 min): rat; for IVGTT > = < Compared to 0601GIP3794: in vivo; for Standard IVGTT assay IV infusion (insulin AUC 0-30 min): IV infusion 100 pmol/min/kg
Experimental: In the typical IVGTT assays the test sample was administered by IV infusion. The IV infusion of sample was initiated at t=−30 min and continued through t=90. IV glucose was given at t=0. To determine a duration of action using the IVGTT assay, the sample was injected SC as a single injection at one time point indicated (e.g., t=−240, −120, −60 or −30) prior to administration of glucose. IV glucose was given at t=0.
As described, fed, isoflurane anesthetized HSD male rats were intubated and cannulated via femoral artery and vein and allowed to stabilize for 1 hour. […] At t=0, an i.v. bolus of 5.7 mmol/kg D-glucose was administered over 2 minutes. Samples for glucose measurement and insulin concentrations were taken at various time points before and after (0 to 90 minutes) glucose infusion.

[5] = read-out: (% Inh 10 nm, GIP-LF Assay)
[6] = read-out: GIP RBA (% Inh 10 nM)

| Compound | inhibition at 0.01 µM (human GIP receptor; [5]) [%] | Basal Gluc. Low. 80 nmol/Kg [1] | OGTT/GL (%) ([2]; 30 nmol/kg) | Duration In The Rat IVGTT Assay [3] | IVGTT > = < Compared to 0601GIP3794 [4] | Basal Glucose Lowering at Peptide Conc. of 80 nmol/kg [1] | also measured |
| --- | --- | --- | --- | --- | --- | --- | --- |
| CC[C@H](C)[C@H](NC(=O)[C@H](CO)NC(=O)[C@H](Cc1ccc(O)cc1)NC(=O)[C@H](CC(=O)O)NC(=O)[C@H](CO)NC(=O)[C@@H](NC(=O)[C@H](Cc1ccccc1)NC(=O)[C@@H](NC(=O)CNC(=O)[C@H](CCC(=O)O)NC(=O)[C@@H](C)NC(=O)[C@@H](N)Cc1ccc(O)cc1)[C@@H](C)O)[C@@H](C)CC)C(=O)N[C@@H](C)C(=O)N[C@@H](CCSC)C(=O)N[C@@H](CC(=O)O)C(=O)N[C@@H](CCCCN)C(=O)N[C@H](C(=O)N[C@@H](Cc1c[nH]cn1)C(=O)N[C@@H](CCC(N)=O)C(=O)N[C@@H](CCC(N)=O)C(=O)N[C@@H](CC(=O)O)C(=O)N[C@@H](Cc1ccccc1)C(=O)N[C@H](C(=O)N[C@@H](CC(N)=O)C(=O)N[C@@H](Cc1c[nH]c2ccccc12)C(=O)N[C@@H](CC(C)C)C(=O)N[C@@H](CC(C)C)C(=O)N[C@@H](C)C(=O)N[C@@H](CCC(N)=O)C(=O)N[C@@H](CCCCN)C(=O)N1CCC[C@H]1C(=O)N[C@@H](CCCCN)C(=O)N[C@@H](CO)C(=O)N[C@@H](C)C(=O)N[C@@H](CCCNC(=N)N)C(=O)N1CCC[C@H]1C(=O)N[C@@H](CO)C(N)=O)C(C)C)[C@@H](C)CC [Compound 0601GIP4821] | 93.5 | −5%, | −28, % | <794@ −120 min | – | – | inhibition at 0.01 µM (human GIP receptor; [6]): 93.5% |
| [dAla2, Leu14, beta-Ala31, beta-Ala32] GIP-(1-32)-Exendin-4 (31-39) [Compound 0601GIP4179] | – | – | −24 30 nmol/kg, % | – | = | −17%, AUC240 | OGTT/GL (%) ([2]; 350 nmol/kg): −23 350 nmol/kg % |
| [dAla2]GIP-(1-30)-[Octylglycine 34] Exendin-4 (31-39) [Compound 0601GIP4252] | – | – | – | – | = | −7%, AUC240 | Standard IVGTT assay IV infusion (insulin AUC 0-30 min) [4]: 218 |
| Human GIP | – | – | – | – | – | – | Standard IVGTT assay IV infusion (insulin AUC 0-30 min) [4]: 226; Duration of action in assay (insulin AUC 0-30 min) ([3]; SC inj T = −30 min): 57 |
| dAla2-GIP(1-42) acid form [Compound 0601GIP4042] | – | – | – | – | – | – | insulinotropic response to an intravenous glucose challenge (IVGTT assay) ([4]; 100 pmol/kg/min infusion, rats): significant enhancement of the insulinotropic response; basal glucose lowering (% maximal decrease) [1]: −11% |
| CC[C@H](C)[C@H](NC(=O)[C@H](C)NC(=O)[C@H](CCCCN)NC(=O)[C@@H]1CCCN1C(=O)[C@H](CCCCN)NC(=O)[C@H](CCC(N)=O)NC(=O)[C@H](C)NC(=O)[C@H](CC(C)C)NC(=O)[C@H](CC(C)C)NC(=O)[C@H](Cc1c[nH]c2ccccc12)NC(=O)[C@H](CC(N)=O)NC(=O)[C@@H](NC(=O)[C@H](Cc1ccccc1)NC(=O)[C@H](CC(=O)O)NC(=O)[C@H](CCC(N)=O)NC(=O)[C@H](CCC(N)=O)NC(=O)[C@H](Cc1c[nH]cn1)NC(=O)[C@@H](NC(=O)[C@H](CCCCN)NC(=O)[C@H](CC(=O)O)NC(=O)[C@H](CCSC)NC(=O)[C@H](C)NC(=O)[C@@H](NC(=O)[C@H](CO)NC(=O)[C@H](Cc1ccc(O)cc1)NC(=O)[C@H](CC(=O)O)NC(=O)[C@H](CO)NC(=O)[C@@H](NC(=O)[C@H](Cc1ccccc1)NC(=O)[C@@H](NC(=O)CNC(=O)[C@H](CCC(=O)O)NC(=O)[C@@H](C)NC(=O)[C@@H](N)Cc1ccc(O)cc1)[C@@H](C)O)[C@@H](C)CC)[C@@H](C)CC)[C@@H](C)CC)C(C)C)C(=O)N[C@@H](CCCNC(=N)N)C(=O)N[C@@H](Cc1ccc(O)cc1)C(=O)N[C@@H](CO)C(N)=O [Compound 0601GIP4816] | 87.3 | −9%, | −19%, | <794@ −120 min | – | – | inhibition at 0.01 µM (human GIP receptor; [6]): 87.3% |
| CC[C@H](C)[C@H](NC(=O)[C@H](CO)NC(=O)[C@H](Cc1ccc(O)cc1)NC(=O)[C@H](CC(=O)O)NC(=O)[C@H](CO)NC(=O)[C@@H](NC(=O)[C@H](Cc1ccccc1)NC(=O)[C@@H](NC(=O)CNC(=O)[C@H](CCC(=O)O)NC(=O)[C@@H](C)NC(=O)[C@@H](N)Cc1ccc(O)cc1)[C@@H](C)O)[C@@H](C)CC)C(=O)N[C@@H](C)C(=O)N[C@@H](CCSC)C(=O)N[C@@H](CC(=O)O)C(=O)N[C@@H](CCCCN)C(=O)N[C@H](C(=O)N[C@@H](Cc1c[nH]cn1)C(=O)N[C@@H](CCC(N)=O)C(=O)N[C@@H](CCC(N)=O)C(=O)N[C@@H](CC(=O)O)C(=O)N[C@@H](Cc1ccccc1)C(=O)N[C@H](C(=O)N[C@@H](CC(N)=O)C(=O)N[C@@H](Cc1c[nH]c2ccccc12)C(=O)N[C@@H](CC(C)C)C(=O)N[C@@H](CC(C)C)C(=O)N[C@@H](C)C(=O)N[C@@H](CCC(N)=O)C(=O)N[C@@H](CCCCN)C(=O)N1CCC[C@H]1C(=O)N[C@@H](CCCCN)C(=O)N[C@@H](CCCCN)C(=O)N[C@@H](C)C(=O)N[C@@H](CCCNC(=N)N)C(=O)N[C@@H](Cc1ccc(O)cc1)C(=O)N[C@@H](CO)C(N)=O)C(C)C)[C@@H](C)CC [Compound 0601GIP4856] | 83.7 | −3%, | −29, % | <794@ −120 min | – | – | – |
| [dAla2, Leu14, Ala18, glu21] GIP-(1-30)-Exendin-4 (31-39) [Compound 0601GIP4285] | – | −2%, | −17% and −17 30 nmol/kg, % | – | = | −2%, AUC240 | OGTT/GL (%) ([2]; 350 nmol/kg): −10 350 nmol/kg % |
| CC[C@H](C)[C@H](NC(=O)[C@H](CO)NC(=O)[C@H](Cc1ccc(O)cc1)NC(=O)[C@H](CC(=O)O)NC(=O)[C@H](CO)NC(=O)[C@@H](NC(=O)[C@H](Cc1ccccc1)NC(=O)[C@@H](NC(=O)CNC(=O)[C@H](CCC(=O)O)NC(=O)[C@@H](C)NC(=O)[C@@H](N)Cc1ccc(O)cc1)[C@@H](C)O)[C@@H](C)CC)C(=O)N[C@@H](C)C(=O)N[C@@H](CCSC)C(=O)N[C@@H](CC(=O)O)C(=O)N[C@@H](CCCCN)C(=O)N[C@H](C(=O)N[C@@H](Cc1c[nH]cn1)C(=O)N[C@@H](CCC(N)=O)C(=O)N[C@@H](CCC(N)=O)C(=O)N[C@@H](CC(=O)O)C(=O)N[C@@H](Cc1ccccc1)C(=O)N[C@H](C(=O)N[C@@H](CC(N)=O)C(=O)N[C@@H](Cc1c[nH]c2ccccc12)C(=O)N[C@@H](CC(C)C)C(=O)N[C@@H](CC(C)C)C(=O)N[C@@H](C)C(=O)N[C@@H](CCC(N)=O)C(=O)N[C@@H](CCCCN)C(=O)N1CCC[C@H]1C(=O)N[C@@H](CCC(N)=O)C(=O)N[C@@H](CCCCN)C(=O)N[C@H](C(=O)N[C@@H](CCCNC(=N)N)C(=O)N[C@@H](Cc1ccc(O)cc1)C(=O)N[C@@H](CO)C(N)=O)[C@@H](C)CC)C(C)C)[C@@H](C)CC [Compound 0601GIP4853] | 91 | – | −25, % | <794@ −120 min | – | – | – |
| CC[C@H](C)[C@H](NC(=O)[C@H](CO)NC(=O)[C@H](Cc1ccc(O)cc1)NC(=O)[C@H](CC(=O)O)NC(=O)[C@H](CO)NC(=O)[C@@H](NC(=O)[C@H](Cc1ccccc1)NC(=O)[C@@H](NC(=O)CNC(=O)[C@H](CCC(=O)O)NC(=O)[C@@H](C)NC(=O)[C@@H](N)Cc1ccc(O)cc1)[C@@H](C)O)[C@@H](C)CC)C(=O)N[C@@H](C)C(=O)N[C@@H](CCSC)C(=O)N[C@@H](CC(=O)O)C(=O)N[C@@H](CCCCN)C(=O)N[C@H](C(=O)N[C@@H](Cc1c[nH]cn1)C(=O)N[C@@H](CCC(N)=O)C(=O)N[C@@H](CCC(N)=O)C(=O)N[C@@H](CC(=O)O)C(=O)N[C@@H](Cc1ccccc1)C(=O)N[C@H](C(=O)N[C@@H](CC(N)=O)C(=O)N[C@@H](Cc1c[nH]c2ccccc12)C(=O)N[C@@H](CC(C)C)C(=O)N[C@@H](CC(C)C)C(=O)N[C@@H](C)C(=O)N[C@@H](CCC(N)=O)C(=O)N[C@@H](CCCCN)C(=O)N1CCC[C@H]1C(=O)N[C@@H](CO)C(=O)N1CCC[C@H]1C(=O)N[C@@H](CCCCN)C(=O)N[C@@H](CCCCN)C(=O)N[C@H](C(=O)N[C@@H](CCCNC(=N)N)C(=O)N[C@@H](Cc1ccc(O)cc1)C(=O)N[C@@H](CO)C(N)=O)[C@@H](C)CC)C(C)C)[C@@H](C)CC [Compound 0601GIP4823] | 94.1 | −23%, | – | <794@ −120 min | – | – | inhibition at 0.01 µM (human GIP receptor; [6]): 94.1% |
| octylglycine-GIP(1-30)-Exendin-4-(31-39) [Compound 0601GIP4178] | – | – | – | – | < | −13%, AUC240 | insulin levels prior to the glucose challenge ([4]; 100 pmol/kg/min infusion, rats): significant rise in insulin levels; insulinotropic response to an intravenous glucose challenge (IVGTT assay) ([4]; 100 pmol/kg/min infusion, rats): diminished insulinotropic response; basal glucose lowering (% maximal decrease) [1]: −20%; OGTT/GL (%) ([2]; 350 nmol/kg): −20%; OGTT response ([2]; mouse, in vivo): −20% |
